pEC50: −log10 of the molar value.
Columns and labels:
[1] = Hepatic microsomal stability, human; assay type: in vitro ADME; settings: 1 μM, 0.2-1 mg/ml microsomes, NADPH 1 mM
Text: In vitro studies compared murine and human hepatic microsomes (150 donor mixed male/female pool).

[2] = test system: CXCR4, TK, PGK or CD4 promoters; assay: Transcription from cellular/control promoters; assay type: cell-based
Experimental: FIG. 8C: Luciferase assays of TE671 cells transfected with the indicated promoter or promoter portion driving Luciferase expression. Main consensus bonding sites for transcription factors are indicated. 24 h post transfection cells were split and treated or not with CA. Forty hours later cells were lysed and luciferase activity measured as in FIG. 8A.
FIG. 8D: CEM SS and HeLa-CD4 cells stained for CD4, CXCR4 or isotype control expression followed by flow cytometry analysis.
Similar results were obtained when a Tat-encoding plasmid was transfected into HeLa-CD4 expressing LTR-Luc (FIG. 2B). […] Reporter transcription from heat-inactivated recombinant Tat protein (FIG. 2A), which was used as negative control, reflects Tat-independent activation of the HIV promoter, and accounts for approximately 20% of maximal activation.

HIV = assay: Viral RNA release from CD4+ T cells of aviremic (HAART) subjects, ultrasensitive RT-PCR; assay type: cell-based, human
Experimental: All patients provided written informed consent, according to the guidelines of the ethics committee of the Oregon Health and Science University. […] Viral production was measured in the supernatant by a sensitive in-house ELISA specific for the viral capsid protein, p24. […] Viral production was measured by quantification of viral particle-associated RNA by ultra-sensitive two-step quantitative real-time reverse transcription-PCR (RT-qPCR). Briefly, viral particles in the cell culture supernatant were pelleted by centrifugation (60 min, 25000 g at 4° C.). To generate the standard curve, a sample of LAI-HIV with known titer was pelleted in the same run. […]
Total viral RNA was reverse-transcribed into cDNA with gag gene-specific primers (25 pmol each), LM667 and GagR according to manufacturer's instructions (RT-PCR One Step kit—Invitrogen). Pre-amplified products were diluted in DNase-RNase free water, then subjected to quantitative real-time PCR on Rotor-Gene Q (Qiagen) in a reaction 25 pmol of the sense primer Lambda T, 25 pmol of the antisense primer AA55M, and 4 pmol of each hybridization probes (TIB MolBiol).
Total viral RNA (17 μL) was first treated with 1 unit DNase I (Invitrogen) for 10 min at 25° C. followed by DNase I inactivation with 1 μL 25 mM EDTA for 10 min at 65° C. Total viral RNA was then reverse-transcribed into cDNA for quantitative PCR analysis. […]

HIV-2 (ROD/A) = assay: Acute HIV-2 replication in HeLa-CD4 cells, p24 ELISA; assay type: cell-based; settings: p24, 5 days post-infection
Text: Antigen p24 in the supernatant measured using a sandwiched ELISA kit, 5 days post-infection.

CN(C)[C@H]1C[C@@]23CC[C@@]4(O2)C(=CC[C@]2(C)C(c5ccc6ccncc6c5)=CC[C@H]24)C=C3[C@@H](O)[C@@H]1O [dCA, didehydro-Cortistatin A]
T1/2 hepatic microsomes, Human [1]: 1 h
transcription from CXCR4, TK, PGK or CD4 promoters [2]: not affected
viability of the cells (HIV; at the concentrations used): did not affect the viability
reduction of viral production (HIV; day 6, in the presence of ARVs, no IL-2): 99.7%
pEC50 (HIV-2 (ROD/A)): ~8.30

— patent US9682994B2, “Inhibitors of retroviral replication” (The Scripps Research Institute, priority 2011, dated 2017)
